Assay results published in patent US20230287044A1, “NOVEL ANTIBACTERIAL PEPTIDE AND USE THEREOF” (priority 2020, published 2023).
≈ marks a conversion by molar mass, not a printed value. Square brackets hold non-standard residues; d marks the D form. Ends that are not written are not given here. Peptide text beside a SMILES is read from it. * marks the point of attachment. NH(β-GlcNAc) = CC(=O)N[C@@H]1[C@@H](O)[C@H](O)[C@@H](CO)O[C@H]1N*

Legend:
[1] = test system: VRE (E. faecalis) ATCC 51575; format: cell-based, Enterococcus faecalis; settings: ATCC 51575, 18 h
Procedure: (§1) The minimum growth inhibitory concentrations of the antibacterial peptides of the present invention weremeasured, and the results are shown in Table 3 below.
(§2) Specifically, the strains were grown in CAMHB until the midlog phase, and then diluted with PBS buffer to 1× 10^6 cfu/ml to prepare the bacterial solution, and the antibacterial peptide prepared in Example 1above was diluted with CAMHB to 80 µM, 40 µM, 20 µM, 10 µM, 5 µM, 2.5 µM, 1.25 µM and 0.63 µM, and then the bacterial solution was treated with the same volume.
(§3) The results are the average value of three independent experiments.

[2] = test system: MRPA (P. aeruginosa) CCARM 2180; format: cell-based, Pseudomonas aeruginosa; settings: CCARM 2180, 18 h
Procedure: as §1, §2, §3

[3] = test system: MRAB (A. baumannii) ATCC BAA 1605; format: cell-based, Acinetobacter baumannii; settings: ATCC BAA 1605, 18 h
Procedure: as §1, §2, §3

[4] = test system: MRSA (S. aureus) KCCM 40510; format: cell-based, Staphylococcus aureus; settings: KCCM 40510, 18 h
Procedure: as §1, §2, §3

CC[C@@H](C)[C@@H](NC(=O)[C@@H](Cc1c[nH]c2ccccc12)NC(=O)[C@@H](CCCNC(=N)N)NC(=O)[C@H](N)CCCNC(=N)N)C(=O)N[C@H](Cc1c[nH]c2ccccc12)C(=O)N[C@@H](C(=O)N[C@H](CC(C)C)C(=O)N[C@H](Cc1c[nH]c2ccccc12)C(=O)N[C@@H](CCCNC(=N)N)C(N)=O)C(C)C [KSH55, rrwiwvlwR] (H-[dR][dR][dW][dI][dW][dV][dL][dW]R-NH2; N-terminus assumed)
MIC VRE (E. faecalis) ATCC 51575 [1]: 0.63 µM (≈ 0.863 µg/mL) | MIC MRPA (P. aeruginosa) CCARM 2180 [2]: 2.5 µM (≈ 3.42 µg/mL) | MIC MRAB (A. baumannii) ATCC BAA 1605 [3]: 0.63 µM (≈ 0.863 µg/mL) | MIC MRSA (S. aureus) KCCM 40510 [4]: 0.63 µM (≈ 0.863 µg/mL)

CC[C@@H](C)[C@@H](NC(=O)[C@@H](Cc1c[nH]c2ccccc12)NC(=O)[C@@H](C)NC(=O)[C@@H](C)NC(=O)[C@H](N)Cc1c[nH]c2ccccc12)C(=O)NCC(=O)N[C@H](CC(C)C)C(=O)N[C@H](CCCNC(=N)N)C(=O)N[C@H](CCCCN)C(=O)N[C@H](CCCNC(=N)N)C(=O)N[C@H](CCCCN)C(N)=O [KSH77, waawiglrkrk] (H-[dW][dA][dA][dW][dI]G[dL][dR][dK][dR][dK]-NH2; N-terminus assumed)
MIC VRE (E. faecalis) ATCC 51575 [1]: >10 µM | MIC MRPA (P. aeruginosa) CCARM 2180 [2]: >10 µM | MIC MRAB (A. baumannii) ATCC BAA 1605 [3]: 2.5 µM (≈ 3.46 µg/mL) | MIC MRSA (S. aureus) KCCM 40510 [4]: >10 µM

CC(C)[C@@H](NC(=O)[C@@H](Cc1c[nH]c2ccccc12)NC(=O)[C@@H](CCCNC(=N)N)NC(=O)[C@@H](CCCNC(=N)N)NC(=O)[C@H](N)CCCNC(=N)N)C(=O)N[C@@H](C(=O)N[C@@H](C(=O)N[C@@H](C(=O)N[C@@H](C(=O)N[C@H](Cc1c[nH]c2ccccc12)C(N)=O)C(C)C)C(C)C)C(C)C)C(C)C [KSH86, rrrwvvvvvw] (H-[dR][dR][dR][dW][dV][dV][dV][dV][dV][dW]-NH2; N-terminus assumed)
MIC VRE (E. faecalis) ATCC 51575 [1]: 1.25 µM (≈ 1.69 µg/mL) | MIC MRPA (P. aeruginosa) CCARM 2180 [2]: 10 µM (≈ 13.5 µg/mL) | MIC MRAB (A. baumannii) ATCC BAA 1605 [3]: 10 µM (≈ 13.5 µg/mL) | MIC MRSA (S. aureus) KCCM 40510 [4]: 1.25 µM (≈ 1.69 µg/mL)

CC(=O)N[C@@H]1[C@@H](O)[C@H](O)[C@@H](CO)O[C@H]1NC(=O)C[C@H](NC(=O)[C@@H](CCCNC(=N)N)NC(=O)[C@@H](CCCNC(=N)N)NC(=O)[C@@H](CCCNC(=N)N)NC(=O)[C@@H](Cc1c[nH]c2ccccc12)NC(=O)[C@H](NC(=O)[C@H](NC(=O)[C@@H](Cc1c[nH]cn1)NC(=O)[C@H](NC(=O)[C@H](NC(=O)[C@H](N)Cc1c[nH]c2ccccc12)C(C)C)C(C)C)C(C)C)C(C)C)C(N)=O [KSH49, wvvhvvwrrrN] (H-[dW][dV][dV][dH][dV][dV][dW][dR][dR][dR]D(NH(β-GlcNAc))-NH2; N-terminus assumed)
MIC VRE (E. faecalis) ATCC 51575 [1]: 1.25 µM (≈ 2.14 µg/mL) | MIC MRPA (P. aeruginosa) CCARM 2180 [2]: 10 µM (≈ 17.1 µg/mL) | MIC MRAB (A. baumannii) ATCC BAA 1605 [3]: 2.5 µM (≈ 4.27 µg/mL) | MIC MRSA (S. aureus) KCCM 40510 [4]: 1.25 µM (≈ 2.14 µg/mL)

CC[C@@H](C)[C@@H](NC(=O)[C@@H](Cc1c[nH]c2ccccc12)NC(=O)[C@@H](CCCNC(=N)N)NC(=O)[C@@H](CCCNC(=N)N)NC(=O)[C@H](N)CCCNC(=N)N)C(=O)N[C@H](Cc1c[nH]c2ccccc12)C(=O)N[C@H](Cc1c[nH]c2ccccc12)C(=O)N[C@H](CC(C)C)C(=O)N[C@H](Cc1c[nH]c2ccccc12)C(=O)N[C@H](CCCCN)C(N)=O [KSH50, rrrwiwwlwk] (H-[dR][dR][dR][dW][dI][dW][dW][dL][dW][dK]-NH2; N-terminus assumed)
MIC VRE (E. faecalis) ATCC 51575 [1]: 1.25 µM (≈ 1.98 µg/mL) | MIC MRPA (P. aeruginosa) CCARM 2180 [2]: 2.5 µM (≈ 3.96 µg/mL) | MIC MRAB (A. baumannii) ATCC BAA 1605 [3]: 0.63 µM (≈ 0.999 µg/mL) | MIC MRSA (S. aureus) KCCM 40510 [4]: 1.25 µM (≈ 1.98 µg/mL)

CC(C)[C@@H](NC(=O)[C@H](N)Cc1c[nH]c2ccccc12)C(=O)N[C@@H](C(=O)N[C@H](Cc1c[nH]c2ccccc12)C(=O)N[C@@H](C(=O)N[C@@H](C(=O)N[C@H](Cc1c[nH]c2ccccc12)C(=O)N[C@H](CCCCN)C(=O)N[C@H](CCCCN)C(=O)N[C@H](CCCCN)C(N)=O)C(C)C)C(C)C)C(C)C [KSH67, wvvwvvwkkk] (H-[dW][dV][dV][dW][dV][dV][dW][dK][dK][dK]-NH2; N-terminus assumed)
MIC VRE (E. faecalis) ATCC 51575 [1]: 0.63 µM (≈ 0.855 µg/mL) | MIC MRPA (P. aeruginosa) CCARM 2180 [2]: 5 µM (≈ 6.78 µg/mL) | MIC MRAB (A. baumannii) ATCC BAA 1605 [3]: 1.25 µM (≈ 1.7 µg/mL) | MIC MRSA (S. aureus) KCCM 40510 [4]: 0.63 µM (≈ 0.855 µg/mL)

CC(C)[C@@H](NC(=O)[C@H](N)Cc1c[nH]c2ccccc12)C(=O)N[C@H](C)C(=O)N[C@H](Cc1c[nH]c2ccccc12)C(=O)N[C@H](C)C(=O)N[C@@H](C(=O)N[C@H](Cc1c[nH]c2ccccc12)C(=O)N[C@H](CCCNC(=N)N)C(=O)N[C@H](CCCNC(=N)N)C(=O)N[C@H](CCCNC(=N)N)C(N)=O)C(C)C [KSH71, wvawavwrrr] (H-[dW][dV][dA][dW][dA][dV][dW][dR][dR][dR]-NH2; N-terminus assumed)
MIC VRE (E. faecalis) ATCC 51575 [1]: 2.5 µM (≈ 3.46 µg/mL) | MIC MRPA (P. aeruginosa) CCARM 2180 [2]: >10 µM | MIC MRAB (A. baumannii) ATCC BAA 1605 [3]: 1.25 µM (≈ 1.73 µg/mL) | MIC MRSA (S. aureus) KCCM 40510 [4]: 5 µM (≈ 6.92 µg/mL)

WVVWVYVRKKR-NH2 [LSH6]
MIC VRE (E. faecalis) ATCC 51575 [1]: 10 µM | MIC MRPA (P. aeruginosa) CCARM 2180 [2]: 40 µM | MIC MRAB (A. baumannii) ATCC BAA 1605 [3]: 2.5 µM | MIC MRSA (S. aureus) KCCM 40510 [4]: 10 µM
